Data reported in patent publication US6960574B2, “Antagonists of RF-amide neuropeptides” (University of Florida, priority 2002, dated 2005).
Peptide text beside a SMILES is read from it. * marks the point of attachment. Dansyl = CN(C)c1cccc2c(S(=O)(=O)*)cccc12

Tested on: receptor labeled by the radioiodinated analogue of 1 (4, [125I]-YLFQPQRF-NH2); neuropeptide FF receptor
Experiment: Competitive radioligand binding against 4 ([125I]Y8F-amide)
Conditions: mixture-based positional scanning; difference from averaged radioligand displacement of whole library (0); about 80 a.u. = 10-fold change in Ki

SMILES | Relative Binding Index (RBI)
CCC(C)C(NS(=O)(=O)c1cccc2c(N(C)C)cccc12)C(=O)NC(CCCCN)C(=O)NC(CCCNC(=N)N)C(N)=O (stereo not drawn) [Dansyl-IKR-amide] (Dansyl-Ile-Lys-Arg-NH2; configuration not given here) | −13 a.u.
CN(C)c1cccc2c(S(=O)(=O)N[C@@H](CC(N)=O)C(=O)N[C@@H](CC(N)=O)C(=O)N[C@@H](CCCNC(=N)N)C(N)=O)cccc12 [Dansyl-NNR-amide] (Dansyl-Asn-Asn-Arg-NH2) | 14 a.u.
CN(C)c1cccc2c(S(=O)(=O)N[C@@H](Cc3ccccc3)C(=O)NCC(=O)N[C@@H](CCCNC(=N)N)C(N)=O)cccc12 [Dansyl-FGR-amide] (Dansyl-Phe-Gly-Arg-NH2) | 15 a.u.
CN(C)c1cccc2c(S(=O)(=O)N[C@@H](CC(N)=O)C(=O)N[C@@H](Cc3ccc(O)cc3)C(=O)N[C@@H](CCCNC(=N)N)C(N)=O)cccc12 [Dansyl-NYR-amide] (Dansyl-Asn-Tyr-Arg-NH2) | 12 a.u.
C[C@H](NC(=O)[C@@H](NS(=O)(=O)c1cccc2c(N(C)C)cccc12)[C@@H](C)O)C(=O)N[C@@H](CCCNC(=N)N)C(N)=O [Dansyl-TAR-amide] (Dansyl-Thr-Ala-Arg-NH2) | −58 a.u.
CC(C)[C@H](NC(=O)[C@H](CCCNC(=N)N)NS(=O)(=O)c1cccc2c(N(C)C)cccc12)C(=O)N[C@@H](CCCNC(=N)N)C(N)=O [Dansyl-RVR-amide] (Dansyl-Arg-Val-Arg-NH2) | 2 a.u.
CN(C)c1cccc2c(S(=O)(=O)N[C@@H](CCCNC(=N)N)C(=O)N[C@@H](CCC(N)=O)C(=O)N[C@@H](CCCNC(=N)N)C(N)=O)cccc12 [Dansyl-RQR-amide] (Dansyl-Arg-Gln-Arg-NH2) | 20 a.u.
CN(C)c1cccc2c(S(=O)(=O)N[C@@H](CC(=O)O)C(=O)N[C@@H](CCC(N)=O)C(=O)N[C@@H](CCCNC(=N)N)C(N)=O)cccc12 [Dansyl-DQR-amide] (Dansyl-Asp-Gln-Arg-NH2) | 8 a.u.
CC(C)C[C@H](NS(=O)(=O)c1cccc2c(N(C)C)cccc12)C(=O)N[C@@H](Cc1c[nH]c2ccccc12)C(=O)N[C@@H](CCCNC(=N)N)C(N)=O [Dansyl-LWR-amide] (Dansyl-Leu-Trp-Arg-NH2) | −23 a.u.
CN(C)c1cccc2c(S(=O)(=O)N[C@@H](Cc3c[nH]c4ccccc34)C(=O)N[C@@H](CCCNC(=N)N)C(=O)N[C@@H](CCCNC(=N)N)C(N)=O)cccc12 [Dansyl-WRR-amide] (Dansyl-Trp-Arg-Arg-NH2) | 7 a.u.
CC(C)C[C@H](NS(=O)(=O)c1cccc2c(N(C)C)cccc12)C(=O)N[C@@H](CCCCN)C(=O)N[C@@H](CCCNC(=N)N)C(N)=O [Dansyl-LKR-amide] (Dansyl-Leu-Lys-Arg-NH2) | −34 a.u.
CN(C)c1cccc2c(S(=O)(=O)NCC(=O)N[C@@H](CC(N)=O)C(=O)N[C@@H](CCCNC(=N)N)C(N)=O)cccc12 [Dansyl-GNR-amide] (Dansyl-Gly-Asn-Arg-NH2) | 26 a.u.
CN(C)c1cccc2c(S(=O)(=O)N[C@@H](Cc3ccc(O)cc3)C(=O)N[C@@H](CCC(N)=O)C(=O)N[C@@H](CCCNC(=N)N)C(N)=O)cccc12 [Dansyl-YQR-amide] (Dansyl-Tyr-Gln-Arg-NH2) | 21 a.u.
C[C@H](NC(=O)[C@@H]1CCCN1S(=O)(=O)c1cccc2c(N(C)C)cccc12)C(=O)N[C@@H](CCCNC(=N)N)C(N)=O [Dansyl-PAR-amide] (Dansyl-Pro-Ala-Arg-NH2) | −97 a.u.
CC(C)C[C@H](NC(=O)[C@H](CCC(=O)O)NS(=O)(=O)c1cccc2c(N(C)C)cccc12)C(=O)N[C@@H](CCCNC(=N)N)C(N)=O [Dansyl-ELR-amide] (Dansyl-Glu-Leu-Arg-NH2) | 8 a.u.
CC(C)C[C@H](NC(=O)[C@H](Cc1cnc[nH]1)NS(=O)(=O)c1cccc2c(N(C)C)cccc12)C(=O)N[C@@H](CCCNC(=N)N)C(N)=O [Dansyl-HLR-amide] (Dansyl-His-Leu-Arg-NH2) | 8 a.u.
CN(C)c1cccc2c(S(=O)(=O)NCC(=O)N[C@@H](Cc3c[nH]cn3)C(=O)N[C@@H](CCCNC(=N)N)C(N)=O)cccc12 [Dansyl-GHR-amide] (Dansyl-Gly-His-Arg-NH2) | 19 a.u.
CC(C)[C@H](NS(=O)(=O)c1cccc2c(N(C)C)cccc12)C(=O)N[C@@H](Cc1ccc(O)cc1)C(=O)N[C@@H](CCCNC(=N)N)C(N)=O [Dansyl-VYR-amide] (Dansyl-Val-Tyr-Arg-NH2) | −6 a.u.
CN(C)c1cccc2c(S(=O)(=O)N[C@@H](CC(N)=O)C(=O)N3CCC[C@H]3C(=O)N[C@@H](CCCNC(=N)N)C(N)=O)cccc12 [Dansyl-NPR-amide] (Dansyl-Asn-Pro-Arg-NH2) | 16 a.u.
CN(C)c1cccc2c(S(=O)(=O)N[C@@H](CC(N)=O)C(=O)N[C@@H](Cc3c[nH]c4ccccc34)C(=O)N[C@@H](CCCNC(=N)N)C(N)=O)cccc12 [Dansyl-NWR-amide] (Dansyl-Asn-Trp-Arg-NH2) | 22 a.u.
CN(C)c1cccc2c(S(=O)(=O)N[C@@H](CCC(N)=O)C(=O)N[C@@H](CO)C(=O)N[C@@H](CCCNC(=N)N)C(N)=O)cccc12 [Dansyl-QSR-amide, dansyl-Gln-Ser-Arg-NH2] (Dansyl-Gln-Ser-Arg-NH2) | 42 a.u.
C[C@@H](O)[C@H](NS(=O)(=O)c1cccc2c(N(C)C)cccc12)C(=O)NCC(=O)N[C@@H](CCCNC(=N)N)C(N)=O [Dansyl-TGR-amide] (Dansyl-Thr-Gly-Arg-NH2) | −3 a.u.
CN(C)c1cccc2c(S(=O)(=O)N3CCC[C@H]3C(=O)N[C@@H](CO)C(=O)N[C@@H](CCCNC(=N)N)C(N)=O)cccc12 [Dansyl-PSR-amide] (Dansyl-Pro-Ser-Arg-NH2) | −27 a.u.
CN(C)c1cccc2c(S(=O)(=O)N[C@@H](CO)C(=O)N[C@@H](Cc3ccc(O)cc3)C(=O)N[C@@H](CCCNC(=N)N)C(N)=O)cccc12 [Dansyl-SYR-amide] (Dansyl-Ser-Tyr-Arg-NH2) | 15 a.u.
CN(C)c1cccc2c(S(=O)(=O)N[C@@H](CCC(N)=O)C(=O)NCC(=O)N[C@@H](CCCNC(=N)N)C(N)=O)cccc12 [Dansyl-QGR-amide] (Dansyl-Gln-Gly-Arg-NH2) | 27 a.u.
C[C@H](NS(=O)(=O)c1cccc2c(N(C)C)cccc12)C(=O)N[C@@H](Cc1ccc(O)cc1)C(=O)N[C@@H](CCCNC(=N)N)C(N)=O [Dansyl-AYR-amide] (Dansyl-Ala-Tyr-Arg-NH2) | 11 a.u.
CC[C@H](C)[C@H](NS(=O)(=O)c1cccc2c(N(C)C)cccc12)C(=O)N[C@@H](CCSC)C(=O)N[C@@H](CCCNC(=N)N)C(N)=O [Dansyl-IMR-amide] (Dansyl-Ile-Met-Arg-NH2) | −11 a.u.
C[C@H](NS(=O)(=O)c1cccc2c(N(C)C)cccc12)C(=O)N[C@@H](CCCNC(=N)N)C(=O)N[C@@H](CCCNC(=N)N)C(N)=O [Dansyl-ARR-amide] (Dansyl-Ala-Arg-Arg-NH2) | 11 a.u.
CC(C)C[C@H](NS(=O)(=O)c1cccc2c(N(C)C)cccc12)C(=O)N[C@@H](C)C(=O)N[C@@H](CCCNC(=N)N)C(N)=O [Dansyl-LAR-amide] (Dansyl-Leu-Ala-Arg-NH2) | −81 a.u.
